Like-named read-outs stand apart in the source and are kept apart here.
Columns and labels:
[1] = Solubility of nano-bruceantin in aqueous solution (visual examination, UV-Vis spectroscopy); assay type: physicochemical
nude mice [2] = assay: Short-term toxicity of bruceantin and nano-bruceantin; assay type: in vivo; details: 5 mg/kg daily for 7 days, FIG. 3
Procedure: (§1) As Experimental Animals, 6-Week-Old Male Nude Mice (Orient Bio, Korea) were used.
Mice were divided into a nanoparticle-administered group (nano-Veh), a phosphate buffer saline-administered group (PBS), a nano-bruceantin-administered group (nano-BCT), and a bruceantin-administered group (free-BCT). The nano-BCT group was orally administered nano-bruceantin at 5 mg/kg daily for 7 days, and the free-BCT group was orally administered bruceantin at 5 mg/kg daily for 7 days.

nude mice [3] = assay: Long-term toxicity of bruceantin and nano-bruceantin; assay type: in vivo; details: 2 mg/kg every two days for 17 days, FIG. 4
Procedure: as §1
The nano-BCT group was orally administered nano-bruceantin at 2 mg/kg every two days for 17 days, and the free-BCT group was orally administered bruceantin at 2 mg/kg every two days for 17 days.

22RV1 cells [4] = assay: Cell growth inhibition assay; assay type: cell-based; details: concentration of 10 nM or more, FIG. 5
Procedure: (§2) Castration-resistant prostate cancer cell line 22RV1 cells were cultured with RPMI-1640 (Welgene) medium containing 10% fetal bovine serum (FBS) (Welgene) and 1% penicillin/streptomycin.
(§3) Castration-resistant prostate cancer cell line 22RV1 cells were treated with various concentrations of each of bruceantin (BCT), nano-bruceantin 1 (nano-BCT #1), and nano-bruceantin 2 (nano-BCT #2) and subjected to cell growth inhibition assay and colony formation assay. Reporter gene assay was performed by transfecting 22RV1 cells with an MMTV-LUC reporter, which can measure the transcriptional activities of AR and AR-V7, and treating the cells with various concentrations of each of BCT, nano-BCT #1, and nano-BCT #2 depending on the presence or absence of the androgen dihydrotestosterone (DHT) (DHT+, AR transcriptional activity measurement condition; DHT−, AR-V7 transcriptional activity measurement condition). Immunoblotting was performed by treating 22RV1 cells with various concentrations of each of BCT and nano-BCT, extracting protein from the cells, electrophoresise protein on 4 to 12% SDS-PAGE gel, and transferring the electrophoresed protein to a PVDF membrane, followed by incubation with antibody.

22RV1 cells [5] = assay: Colony formation assay; assay type: cell-based; details: various concentrations, FIG. 6
Procedure: as §2, §3

AR [6] = assay: MMTV-LUC reporter gene assay, DHT+ (AR transcriptional activity); assay type: cell-based; details: 22RV1 cells, FIG. 7
Procedure: as §2, §3

AR-V7 [7] = assay: MMTV-LUC reporter gene assay, DHT− (AR-V7 transcriptional activity); assay type: cell-based; details: 22RV1 cells, FIG. 7
Procedure: as §2, §3

AR [8] = assay: Immunoblotting for AR in 22RV1 cells; assay type: cell-based; details: various concentrations, FIG. 8
Procedure: as §2, §3

AR-V7 [9] = assay: Immunoblotting for AR-V7 in 22RV1 cells; assay type: cell-based; details: various concentrations, FIG. 8
Procedure: as §2, §3

CWR22RV1 = CWR22RV1 xenograft mice: tumor volume and bioluminescence; assay type: in vivo; details: oral, 2 mg/kg every two days for 19 days
Procedure: Castration-resistant prostate cancer cell line CWR22RV1 was purchased from ATCC (USA), and xenograft mice were constructed by subcutaneously injecting CWR22RV1 into nude mice.
The xenograft mice were divided into a nanoparticle-treated group (nano-Veh), a control group (free-Veh), a nano-bruceantin-treated group (nano-BCT), and a bruceantin-treated group (free-BCT). The nano-BCT group and the free-BCT group were orally administered nano-bruceantin and bruceantin, respectively, at 2 mg/kg every two days for 19 days. Thereafter, tumor volume and bioluminescence were measured for each treated group.

AR/AR-V7 [10] = details: castration-resistant prostate cancer cell line 22RV1 cells; KR 10-2020-0139625; cited from earlier work
AR/AR-V7 [11] = details: androgen-dependent LNCaP cells; KR 10-2020-0139625; cited from earlier work

Compound: COC(=O)[C@@]12OC[C@]34[C@H]([C@@H](O)[C@@H]1O)[C@@]1(C)CC(=O)C(O)=C(C)[C@@H]1C[C@H]3OC(=O)[C@H](OC(=O)/C=C(\C)C(C)C)[C@@H]24 [bruceantin]
- solubility [1]: < 100 µg/mL
- side effects upon short-term oral administration (nude mice [2]): accompanied by acute side effects such as exophthalmos, sudden death, and weight loss
- side effects upon long-term oral administration (nude mice [3]): accompanied by side effects such as exophthalmos, sudden death, and weight loss
- cell growth inhibitory effect, compared between groups (22RV1 cells [4]): similar
- colony formation, compared between groups (22RV1 cells [5]): no significant difference
- AR transcriptional activity (reporter gene), compared between groups (AR [6]): no significant difference
- AR-V7 transcriptional activity (reporter gene), compared between groups (AR-V7 [7]): no significant difference
- AR protein (immunoblotting) (AR [8]): decreased
- AR-V7 protein (immunoblotting) (AR-V7 [9]): decreased
- tumor volume (CWR22RV1; FIG. 9): decrease in tumor volume was from day 13
- bioluminescence (CWR22RV1; FIG. 10): decrease in bioluminescence
- transcriptional activity of AR/AR-V7 (AR/AR-V7 [10]): simultaneously and strongly inhibit
- transcriptional activity of AR/AR-V7 (AR/AR-V7 [11]): simultaneously and strongly inhibit
